Data reported in patent US20060178374A1, “Aminoheteroaryl compounds as protein kinase inhibitors” (AGOURON PHARMACEUTICALS, INC., priority 2004, published 2006).

molecular target: HGFR (c-Met) (Homo sapiens, UniProt P08581); experiment: HGFR Continuous-Coupled Spectrophotometric Assay; format: biochemical; details: HGFR enzyme 50 nM, Met-2 peptide substrate, 37° C.
Procedure: The general procedure is as follows: compounds and kinase assay reagents are introduced into test wells. The assay is initiated by addition of the kinase enzyme. Enzyme inhibitors reduce the measured activity of the enzyme.
In the continuous-coupled spectrophotometric assay the time-dependent production of ADP by the kinase is determined by analysis of the rate of consumption of NADH by measurement of the decrease in absorbance at 340 nm. As the PK produces ADP it is re-converted to ATP by reaction with phosphoenol pyruvate and pyruvate kinase. Pyruvate is also produced in this reaction. Pyruvate is subsequently converted to lactate by reaction with lactate dehydrogenase, which simultaneously converts NADH to NAD.
HGFR Continuous-Coupled Spectrophotometric Assay
This assay analyzes the tyrosine kinase activity of HGFR on the Met-2 substrate peptide, a peptide derived from the activation loop of the HGFR.
• 1. […] Dissolve up in 200 mM HEPES, pH 7.5 at 10 mM stock. • 3. 1 M PEP (phospho-enol-pyruvate) in 200 mM HEPES, pH 7.5 • 4. 100 mM NADH (B-Nicotinamide Adenine Dinucleotide, Reduced Form) in 200 mM HEPES, pH 7.5 • 5. 4 M MgCl2 (Magnesium Chloride) in ddH2O 6. 1 M DTT (Dithiothreitol) in 200 mM HEPES, pH 7.5 • 7. 15 Units/mL LDH (Lactic Dehydrogenase) • 8. 15 Units/mL PK (Pyruvate Kinase) • 9. 5M NaCl dissolved in ddH2O • 10. Tween-20 (Protein Grade) 10% Solution • 11. 1 M HEPES buffer: (N-[2-Hydroxethyl]piperazine-N-[2-ethanesulfonic acid]) Sodium Salt. Dissolve in ddH2O, adjust pH to 7.5, bring volume to 1 L. Filter at 0.1 μm. • 12. […] 100% DMSO (SIGMA) • 14. […] Beckman DU-650 w/ micro cell holders • 18. Beckman 4-position micro cell cuvette Procedure:
Prep Dilution Buffer (DB) for Enzyme (For 30 mL prep) • 1. DB final concentration is 2 mM DTT, 25 mM NaCl2, 5 mM MgCl2, 0.01% Tween-20, and 50 mM HEPES buffer, pH 7.5. • 2. Make up 50 mM HEPES by adding 1.5 mL 1 M HEPES into 28.1 mL of ddH2O. Add rest of the reagents. Into 50 mL conical vial, add 60 μL of 1M DTT, 150 μL 5M NaCl2, 150 μL 1M MgCl2, and 30 μL of 10% Tween-20 to give total volume of 30 mL. • 3. Vortex for 5-10 seconds. • 4. Aliquot out DB at 1 mL/tube and label tubes as “DB HGFR” • 5. Note: This can be prepared and stored ahead of time. • 6. Freeze un-used aliquots in microcentrifuge tubes at −20° C. freezer.
Prep Compounds • 1. For compound dilution plate, add 4 μL of 10 mM stock into column 1 of plate, and bring volume to 100 μL with 100% DMSO. • 2. Set up the Precision 2000 dilution method. A final concentration of 200 μM compound in 50% DMSO, 100 mM HEPES (1:2 serial dilution).
Prep Coupled Enzymatic Buffer:
1. Final concentration in assay:
• 2. For a 10 mL reaction buffer add 10 μL of 1M PEP, 33 μL of 100 mM NADH, 50 μL of 4M MgCl2, 20 μL of 1M DTT, 6 μL of 500 mM ATP, and […] of 10 mM Met-2 peptide into 100 mM HEPES buffer pH 7.5 and vortex/mix. • 3. Add coupling enzymes, LDH and PK, into reaction mix. Mix by gentle inversion.
1. Spectrophotometer settings:
• 2. Add 85 μL of CE reaction mix into each well of assay plate. • 3. Add 5 μL of diluted compound into a well of the assay plate. • 4. Add 5 μL of 50% DMSO for negative control into last column of assay plate. • 5. Mix with multi-channel pipettor or orbital shaker. • 6. Pre-incubate for 10 minutes at 37° C. • 7. Add 10 μL of 500 nM HGFR to each well of assay plate; the final HGFR concentration is 50 nM in a total final volume of 100 μL. • 8. Measure activity for 10 minutes at λ=340 nm and 37° C.
Ki data were obtained using the HGFR Continuous-Coupled Spectrophotometric Assay, and IC50 data were obtained using the Cellular HGFR Autophosphorylation Assay, both of which are described above.

Sequence of HGFR (c-Met) (P08581 974-1390): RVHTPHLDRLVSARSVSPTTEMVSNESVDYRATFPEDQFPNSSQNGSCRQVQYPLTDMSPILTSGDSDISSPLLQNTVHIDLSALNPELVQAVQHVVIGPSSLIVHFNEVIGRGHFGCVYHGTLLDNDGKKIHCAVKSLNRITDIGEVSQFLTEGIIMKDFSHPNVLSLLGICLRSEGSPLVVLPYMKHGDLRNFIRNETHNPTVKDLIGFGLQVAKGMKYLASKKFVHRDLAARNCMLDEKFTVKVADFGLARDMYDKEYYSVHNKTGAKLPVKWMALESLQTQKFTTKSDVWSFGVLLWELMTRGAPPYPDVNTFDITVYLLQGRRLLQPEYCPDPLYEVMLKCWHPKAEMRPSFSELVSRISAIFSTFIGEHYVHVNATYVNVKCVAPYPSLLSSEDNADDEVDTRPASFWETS

Ki | SMILES
262 nM | Cc1[nH]c(C(=O)NCCN(C)C)c(C)c1-c1cnc(N)c(OC(C)c2c(Cl)ccc(F)c2Cl)c1 (stereo not drawn) [Example 44, 4-{6-Amino-5-[1-(2,6-dichloro-3-fluoro-phenyl)-ethoxy]-pyridin-3-yl}-3,5-dimethyl-1H-pyrrole-2-carboxylic acid (2-dimethylamino-ethyl)-amide]
96 nM | CC(Oc1cc(-c2cccc(NC(=O)N3CCNCC3)c2)cnc1N)c1c(Cl)ccc(F)c1Cl (stereo not drawn) [Example 45, Piperazine-1-carboxylic acid (3-{6-amino-5-[1-(2,6-dichloro-3-fluoro-phenyl)-ethoxy]-pyridin-3-yl}-phenyl)-amide]
154 nM | C[C@@H](Oc1nc(-c2ccc(C(=O)O)cc2)cnc1N)c1c(Cl)ccc(F)c1Cl [Example 47, 4-{5-Amino-6-[(R)-1-(2,6-dichloro-3-fluoro-phenyl)-ethoxy]-pyrazin-2-yl}-benzoic acid]
27 nM | C[C@@H](Oc1nc(-c2ccc(C(=O)N3CCNCC3)cc2)cnc1N)c1c(Cl)ccc(F)c1Cl [Example 48, (4-{5-Amino-6-[(R)-1-(2,6-dichloro-3-fluoro-phenyl)-ethoxy]-pyrazin-2-yl}-phenyl)-piperazin-1-yl-methanone]
335 nM | C[C@@H](Oc1nc(-c2ccc(C(=O)N3CCN(C(=O)OC(C)(C)C)CC3)cc2)cnc1N)c1c(Cl)ccc(F)c1Cl [Example 49, 4-(4-{5-Amino-6-[(R)-1-(2,6-dichloro-3-fluoro-phenyl)-ethoxy]-pyrazin-2-yl}-benzoyl)-piperazine-1-carboxylic acid tert-butyl ester]
1840 nM | CC(Oc1cc(Br)cnc1N)c1c(C#N)ccc(N(C)C)c1Cl (stereo not drawn) [Example 50, 2-{1-[(2-amino-5-bromopyridin-3-yl)oxy]ethyl}-3-chloro-4-(dimethylamino)benzonitrile]
2090 nM | CC(Oc1cc(Br)cnc1N)c1c(C#N)ccc(F)c1Cl (stereo not drawn) [Example 51, 2-[1-(2-Amino-5-bromo-pyridin-3-yloxy)-ethyl]-3-chloro-4-fluoro-benzonitrile]
2140 nM | CC(Oc1cc(-c2ccc(C(=O)N3CCC(N4CCCC4)CC3)cc2)cnc1N)c1ccc(Cl)cc1Cl (stereo not drawn) [Example 52, (4-{6-Amino-5-[1-(2,4-dichloro-phenyl)-ethoxy]-pyridin-3-yl}-phenyl)-(4-pyrrolidin-1-yl-piperidin-1-yl)-methanone]

The remaining lines, values behind:

SMILES | Ki
COc1cc(-c2cnc(N)c(OC(C)c3c(Cl)ccc(F)c3Cl)c2)ccc1CN1C[C@@H](C)N[C@@H](C)C1 (stereo partly drawn) [Example 27, 3-[1-(2,6-dichloro-3-fluorophenyl)ethoxy]-5-(4-{[(3R,5S)-3,5-dimethylpiperazin-1-yl]methyl}-3-methoxyphenyl)pyridin-2-amine] | 21.6 nM
COc1cc(-c2cnc(N)c(OC(C)c3c(Cl)ccc(F)c3Cl)c2)ccc1C(=O)N1CCNCC1 (stereo not drawn) [Example 28, 3-[1-(2,6-dichloro-3-fluorophenyl)ethoxy]-5-[3-methoxy-4-(piperazin-1-ylcarbonyl)phenyl]pyridin-2-amine] | 26.4 nM
COc1cc(-c2cnc(N)c(OC(C)c3c(Cl)ccc(F)c3Cl)c2)ccc1CN1CCNCC1 (stereo not drawn) [Example 29, 3-[1-(2,6-dichloro-3-fluorophenyl)ethoxy]-5-[3-methoxy-4-(piperazin-1-ylmethyl)phenyl]pyridin-2-amine] | 12.3 nM
CC(Oc1cc(-c2ccc(C3(O)CCNCC3)nc2)cnc1N)c1c(Cl)ccc(F)c1Cl (stereo not drawn) [Example 30] | 21.9 nM
COc1cc(-c2cnc(N)c(OC(C)c3c(Cl)ccc(F)c3Cl)c2)ccc1COC(=O)N(C)C (stereo not drawn) [Example 31, 4-{6-amino-5-[1-(2,6-dichloro-3-fluorophenyl)ethoxy]pyridin-3-yl}-2-methoxybenzyl dimethylcarbamate] | 149 nM
CC(Oc1cc(-c2ccc(OCC(=O)N3CCNCC3)cc2)cnc1N)c1c(Cl)ccc(F)c1Cl (stereo not drawn) [Example 33, 2-(4-{6-Amino-5-[1-(2,6-dichloro-3-fluoro-phenyl)-ethoxy]-pyridin-3-yl}-phenoxy)-1-piperazin-1-yl-ethanone] | 14700 nM
CC(Oc1cc(-c2ccc(OC3CCNCC3)cc2)cnc1N)c1c(Cl)ccc(F)c1Cl (stereo not drawn) [Example 34, 3-[1-(2,6-Dichloro-3-fluoro-phenyl)-ethoxy]-5-[4-(piperidin-4-yloxy)-phenyl]-pyridin-2-ylamine] | 40 nM
C[C@@H]1CN(C(=O)c2ccc(-c3cnc(N)c(OC4CCCCc5ccc(F)cc54)c3)cc2)C[C@H](C)N1 (stereo partly drawn) [Example 36, {4-[6-Amino-5-(3-fluoro-6,7,8,9-tetrahydro-5H-benzocyclohepten-5-yloxy)-pyridin-3-yl]-phenyl}-((3R,5S)-3,5-dimethyl-piperazin-1-yl)-methanone] | 6280 nM
Nc1ncc(-c2ccc(OCCN3CCCC3)cc2)cc1OC1CCCCc2ccc(F)cc21 (stereo not drawn) [Example 37, 3-(3-Fluoro-6,7,8,9-tetrahydro-5H-benzocyclohepten-5-yloxy)-5-[4-(2-pyrrolidin-1-yl-ethoxy)-phenyl]-pyridin-2-ylamine] | 8270 nM
CS(=O)(=O)Nc1ccc(-c2cnc(N)c(OC3CCCCc4ccc(F)cc43)c2)cc1 (stereo not drawn) [Example 38, N-{4-[6-Amino-5-(3-fluoro-6,7,8,9-tetrahydro-5H-benzocyclohepten-5-yloxy)-pyridin-3-yl]-phenyl}-methanesulfonamide] | 7120 nM
CC(Oc1cc(-c2ccc(NC(=O)N3CCC(NC4CC4)CC3)cc2)cnc1N)c1c(Cl)ccc(F)c1Cl (stereo not drawn) [Example 39, 4-Cyclopropylamino-piperidine-1-carboxylic acid (4-{6-amino-5-[1-(2,6-dichloro-3-fluoro-phenyl)-ethoxy]-pyridin-3-yl}-phenyl)-amide] | 95 nM
CC(Oc1cc(-c2ccc(NC(=O)N3CCNCC3)cc2)cnc1N)c1c(Cl)ccc(F)c1Cl (stereo not drawn) [Example 40, Piperazine-1-carboxylic acid (4-{6-amino-5-[1-(2,6-dichloro-3-fluoro-phenyl)-ethoxy]-pyridin-3-yl}-phenyl)-amide] | 88 nM
CCOC(=O)c1[nH]c(C)c(-c2cnc(N)c(OC(C)c3c(Cl)ccc(F)c3Cl)c2)c1C (stereo not drawn) [Example 41, 4-{6-Amino-5-[1-(2,6-dichloro-3-fluoro-phenyl)-ethoxy]-pyridin-3-yl}-3,5-dimethyl-1H-pyrrole-2-carboxylic acid ethyl ester] | 2090 nM
Cc1[nH]c(C(=O)O)c(C)c1-c1cnc(N)c(OC(C)c2c(Cl)ccc(F)c2Cl)c1 (stereo not drawn) [Example 42, 4-{6-Amino-5-[1-(2,6-dichloro-3-fluoro-phenyl)-ethoxy]-pyridin-3-yl}-3,5-dimethyl-1H-pyrrole-2-carboxylic acid] | 1250 nM
Cc1[nH]c(C(=O)NCCCN(C)C)c(C)c1-c1cnc(N)c(OC(C)c2c(Cl)ccc(F)c2Cl)c1 (stereo not drawn) [Example 43, 4-{6-Amino-5-[1-(2,6-dichloro-3-fluoro-phenyl)-ethoxy]-pyridin-3-yl}-3,5-dimethyl-1H-pyrrole-2-carboxylic acid (3-dimethylamino-propyl)-amide] | 451 nM

same assay, conditions: compound at 1 μM

inhibition at 1 µM | SMILES
9% | Nc1ncc(Br)cc1OC1CCCCc2ccc(F)cc21 (stereo not drawn) [Example 35, 5-Bromo-3-(3-fluoro-6,7,8,9-tetrahydro-5H-benzocyclohepten-5-yloxy)-pyridin-2-ylamine]
